Assay results as given in publication PMC9005681, “Use of AD Informer Set compounds to explore validity of novel targets in Alzheimer's disease pathology” (Alzheimer's & Dementia : Translational Research & Clinical …, 2022).

Key:
Assay in all cases: PDSP GPCR panel primary binding assays at 10 μM
[1] = molecular target: T1, cloned human or rodent CNS receptors, channels, and transporters (PDSP panel) (Homo sapiens, UniProt P28222); settings: Receptor 5-HT1B, primary assay, 10 μM; for Mean %: mean of Inhibition 1-4
T1 construct: expressed in transfected cells
T1 sequence (P28222 whole entry): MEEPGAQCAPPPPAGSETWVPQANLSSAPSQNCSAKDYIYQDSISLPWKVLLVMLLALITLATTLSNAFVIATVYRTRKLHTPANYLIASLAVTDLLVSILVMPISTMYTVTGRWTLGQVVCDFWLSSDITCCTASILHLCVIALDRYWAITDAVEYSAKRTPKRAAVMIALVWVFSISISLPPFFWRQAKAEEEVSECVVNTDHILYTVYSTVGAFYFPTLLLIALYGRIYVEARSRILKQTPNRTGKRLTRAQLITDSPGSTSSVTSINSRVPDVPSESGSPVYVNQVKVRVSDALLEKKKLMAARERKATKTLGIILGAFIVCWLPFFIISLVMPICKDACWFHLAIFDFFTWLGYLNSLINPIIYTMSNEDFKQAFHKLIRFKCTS
How it was run: (§1)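 Primary screen: 10 μM, quadruplicate, displacement of radio-labeled standard ligand. Hit cut-off >50% mean displacement → secondary 11-point dose-response, triplicate. H3, PBR, GABAA excluded from follow-up.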

[2] = molecular target: T2, cloned human or rodent CNS receptors, channels, and transporters (PDSP panel) (Homo sapiens, UniProt P28221); settings: Receptor 5-HT1D, primary assay, 10 μM; for Mean %: mean of Inhibition 1-4
T2 construct: expressed in transfected cells
T2 sequence (P28221 whole entry): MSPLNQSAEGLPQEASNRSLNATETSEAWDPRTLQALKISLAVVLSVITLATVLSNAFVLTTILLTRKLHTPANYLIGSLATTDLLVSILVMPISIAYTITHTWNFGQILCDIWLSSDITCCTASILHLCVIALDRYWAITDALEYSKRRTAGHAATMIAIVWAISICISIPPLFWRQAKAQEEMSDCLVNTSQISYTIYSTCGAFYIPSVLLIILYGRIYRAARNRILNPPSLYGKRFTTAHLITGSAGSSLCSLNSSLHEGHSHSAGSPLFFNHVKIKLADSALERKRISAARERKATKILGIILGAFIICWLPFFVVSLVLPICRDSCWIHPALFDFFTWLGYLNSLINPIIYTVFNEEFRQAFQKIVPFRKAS
How it was run: as §1

[3] = molecular target: T3, cloned human or rodent CNS receptors, channels, and transporters (PDSP panel) (Homo sapiens, UniProt P41145); settings: Receptor KOR, primary assay, 10 μM; for Mean %: mean of Inhibition 1-4
T3 construct: expressed in transfected cells
T3 sequence (P41145 whole entry): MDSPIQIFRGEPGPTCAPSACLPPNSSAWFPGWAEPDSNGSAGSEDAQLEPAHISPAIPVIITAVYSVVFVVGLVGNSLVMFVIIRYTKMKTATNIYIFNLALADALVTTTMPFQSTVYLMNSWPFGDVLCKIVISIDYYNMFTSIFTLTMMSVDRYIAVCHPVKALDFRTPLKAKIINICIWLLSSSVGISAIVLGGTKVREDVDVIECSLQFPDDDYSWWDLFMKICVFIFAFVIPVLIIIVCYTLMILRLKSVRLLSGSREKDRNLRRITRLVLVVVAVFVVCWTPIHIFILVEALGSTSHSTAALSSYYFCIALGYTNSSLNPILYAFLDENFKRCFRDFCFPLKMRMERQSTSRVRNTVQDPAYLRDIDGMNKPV
How it was run: as §1

[4] = molecular target: T4, cloned human or rodent CNS receptors, channels, and transporters (PDSP panel) (Homo sapiens, UniProt P08908); settings: Receptor 5-HT1A, primary assay, 10 μM; for Mean %: mean of Inhibition 1-4
T4 construct: expressed in transfected cells
T4 sequence (P08908 1-422): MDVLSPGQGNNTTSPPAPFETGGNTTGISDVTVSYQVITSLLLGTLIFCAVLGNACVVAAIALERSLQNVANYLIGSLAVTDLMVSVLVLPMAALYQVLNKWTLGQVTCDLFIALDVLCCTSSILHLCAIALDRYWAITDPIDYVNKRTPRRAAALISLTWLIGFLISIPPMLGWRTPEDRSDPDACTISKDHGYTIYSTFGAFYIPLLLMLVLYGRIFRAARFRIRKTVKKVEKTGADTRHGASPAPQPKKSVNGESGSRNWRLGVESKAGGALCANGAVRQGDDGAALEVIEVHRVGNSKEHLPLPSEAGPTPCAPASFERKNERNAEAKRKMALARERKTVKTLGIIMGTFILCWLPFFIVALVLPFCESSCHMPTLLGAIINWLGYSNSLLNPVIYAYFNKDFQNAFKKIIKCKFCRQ
How it was run: as §1

[5] = molecular target: T5, cloned human or rodent CNS receptors, channels, and transporters (PDSP panel) (Homo sapiens, UniProt P35367); settings: Receptor H1, primary assay, 10 μM; for Mean %: mean of Inhibition 1-4
T5 construct: expressed in transfected cells
T5 sequence (P35367 whole entry): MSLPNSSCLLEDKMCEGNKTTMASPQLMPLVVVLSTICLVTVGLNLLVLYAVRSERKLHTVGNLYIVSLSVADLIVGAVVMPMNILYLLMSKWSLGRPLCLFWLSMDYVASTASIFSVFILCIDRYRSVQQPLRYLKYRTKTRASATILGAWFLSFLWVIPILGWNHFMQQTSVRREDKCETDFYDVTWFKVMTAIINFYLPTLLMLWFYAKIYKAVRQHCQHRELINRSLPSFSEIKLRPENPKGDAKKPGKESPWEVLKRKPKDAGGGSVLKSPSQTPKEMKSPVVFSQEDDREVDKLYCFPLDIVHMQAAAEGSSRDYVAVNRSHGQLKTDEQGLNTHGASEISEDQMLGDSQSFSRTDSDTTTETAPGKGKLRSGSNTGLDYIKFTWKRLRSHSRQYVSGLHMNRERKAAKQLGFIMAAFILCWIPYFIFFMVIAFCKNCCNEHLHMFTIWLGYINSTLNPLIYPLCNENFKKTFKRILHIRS
How it was run: as §1

[6] = system: cloned human or rodent CNS receptors, channels, and transporters (PDSP panel); settings: for Mean % / Inhibition 1 / Inhibition 2 / Inhibition 3 / Inhibition 4: primary assay
How it was run: as §1

[7] = molecular target: T6, cloned human or rodent CNS receptors, channels, and transporters (PDSP panel) (Homo sapiens, UniProt P08912); settings: Receptor M5, primary assay, 10 μM; for Mean %: mean of Inhibition 1-4
T6 construct: expressed in transfected cells
T6 sequence (P08912 1-532): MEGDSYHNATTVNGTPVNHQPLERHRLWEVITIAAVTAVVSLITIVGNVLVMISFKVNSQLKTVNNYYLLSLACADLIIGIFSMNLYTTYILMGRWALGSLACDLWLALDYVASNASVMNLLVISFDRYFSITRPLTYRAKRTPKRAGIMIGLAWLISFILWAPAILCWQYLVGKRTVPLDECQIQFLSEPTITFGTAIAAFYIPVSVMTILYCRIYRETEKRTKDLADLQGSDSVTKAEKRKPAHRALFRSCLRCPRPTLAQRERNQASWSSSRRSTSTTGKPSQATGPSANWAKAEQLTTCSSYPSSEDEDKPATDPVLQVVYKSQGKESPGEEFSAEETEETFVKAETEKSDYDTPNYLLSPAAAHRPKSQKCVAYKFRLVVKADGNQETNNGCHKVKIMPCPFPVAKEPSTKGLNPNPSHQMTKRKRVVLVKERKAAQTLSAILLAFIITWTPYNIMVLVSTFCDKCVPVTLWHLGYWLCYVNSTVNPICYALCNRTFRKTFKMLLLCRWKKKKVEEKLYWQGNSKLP
How it was run: as §1

[8] = Receptor Alpha1A, 10 μM, mean of Inhibition 1-4
[9] = Receptor Alpha2A, 10 μM, mean of Inhibition 1-4
[10] = Receptor Alpha2C, 10 μM, mean of Inhibition 1-4
[11] = Receptor BZP Rat Brain Site, 10 μM
[12] = Receptor BZP Rat Brain Site, 10 μM, mean of Inhibition 1-4
[13] = Receptor DOR, 10 μM, mean of Inhibition 1-4
[14] = Receptor Sigma 1, 10 μM, mean of Inhibition 1-4
[15] = Receptor Sigma 2, 10 μM, mean of Inhibition 1-4

O=c1oc2ccccc2cc1-c1cn2cc(Cc3ccc(F)cc3)sc2n1 [UNC10302680A, iMDK]
Inhibition 1 [1]: 28.3%
Inhibition 2 [1]: -13.17%
Inhibition 3 [1]: 0.98%
Inhibition 4 [1]: -13.17%
Mean % [1]: 0.74%
Inhibition 1 [2]: -3.85%
Inhibition 2 [2]: -18.84%
Inhibition 3 [2]: 15.72%
Inhibition 4 [2]: -8.43%
Mean % [2]: -3.85%
Inhibition 1 [3]: -23.4%
Inhibition 2 [3]: -19.7%
Inhibition 3 [3]: -5.6%
Inhibition 4 [3]: -21.38%
Mean % [3]: -17.52%
Inhibition 1 [4]: 5.77%
Inhibition 2 [4]: 4.57%
Inhibition 3 [4]: -6.98%
Inhibition 4 [4]: 3.71%
Mean % [4]: 1.77%
Inhibition 1 [5]: 99.74%
Inhibition 2 [5]: 88.41%
Inhibition 3 [5]: 71.44%
Inhibition 4 [5]: 51.8%
Mean % [5]: 77.85%
Mean % ([6]; H3, mean inhibition): 41.02%
Inhibition 1 ([6]; H3, replicate 1): 20.04%
Inhibition 2 ([6]; H3, replicate 2): 32.28%
Inhibition 3 ([6]; H3, replicate 3): 47.14%
Inhibition 4 ([6]; H3, replicate 4): 64.63%
Mean % ([6]; H4, mean inhibition): 39.36%
Inhibition 1 ([6]; H4, replicate 1): 11.58%
Inhibition 2 ([6]; H4, replicate 2): 47.34%
Inhibition 3 ([6]; H4, replicate 3): 40.86%
Inhibition 4 ([6]; H4, replicate 4): 57.67%
Inhibition 1 ([6]; Receptor Alpha1A, 10 μM): -21.6%
Inhibition 2 ([6]; Receptor Alpha1A, 10 μM): -1.59%
Inhibition 3 ([6]; Receptor Alpha1A, 10 μM): -0.84%
Inhibition 4 ([6]; Receptor Alpha1A, 10 μM): -9.82%
Mean % [6, 8]: -8.46%
Inhibition 1 ([6]; Receptor Alpha2A, 10 μM): 9.97%
Inhibition 2 ([6]; Receptor Alpha2A, 10 μM): 11.68%
Inhibition 3 ([6]; Receptor Alpha2A, 10 μM): -0.74%
Inhibition 4 ([6]; Receptor Alpha2A, 10 μM): -29.15%
Mean % [6, 9]: -2.06%
Inhibition 1 ([6]; Receptor Alpha2C, 10 μM): 20.53%
Inhibition 2 ([6]; Receptor Alpha2C, 10 μM): 3.75%
Inhibition 3 ([6]; Receptor Alpha2C, 10 μM): 5.64%
Inhibition 4 ([6]; Receptor Alpha2C, 10 μM): 4%
Mean % [6, 10]: 8.48%
Inhibition 1 [6, 11]: -12.35%
Inhibition 2 [6, 11]: -8.18%
Inhibition 3 [6, 11]: -22.2%
Inhibition 4 [6, 11]: 3.1%
Mean % [6, 12]: -9.91%
Inhibition 1 ([6]; Receptor DOR, 10 μM): -22.02%
Inhibition 2 ([6]; Receptor DOR, 10 μM): -14.61%
Inhibition 3 ([6]; Receptor DOR, 10 μM): -13.89%
Inhibition 4 ([6]; Receptor DOR, 10 μM): -8.29%
Mean % [6, 13]: -14.7%
Inhibition 1 ([6]; Receptor Sigma 1, 10 μM): 7.22%
Inhibition 2 ([6]; Receptor Sigma 1, 10 μM): -7.42%
Inhibition 3 ([6]; Receptor Sigma 1, 10 μM): 1.64%
Inhibition 4 ([6]; Receptor Sigma 1, 10 μM): 5.36%
Mean % [6, 14]: 1.7%
Inhibition 1 ([6]; Receptor Sigma 2, 10 μM): 14.42%
Inhibition 2 ([6]; Receptor Sigma 2, 10 μM): 15.13%
Inhibition 3 ([6]; Receptor Sigma 2, 10 μM): 40.23%
Inhibition 4 ([6]; Receptor Sigma 2, 10 μM): 21.82%
Mean % [6, 15]: 22.9%
Inhibition 1 [7]: -0.74%
Inhibition 2 [7]: -17.55%
Inhibition 3 [7]: -6.68%
Inhibition 4 [7]: -10.7%
Mean % [7]: -8.92%

Cl.NC(=O)c1cnc(N[C@@H]2CCCC[C@@H]2N)nc1Nc1cccc(-n2nccn2)c1 [UNC10302682A, P505-15 (PRT06207 HCl)]
Inhibition 1 [1]: 53.66%
Inhibition 2 [1]: 22.41%
Inhibition 3 [1]: 27.71%
Inhibition 4 [1]: 32.24%
Mean % [1]: 34.01%
Inhibition 1 [2]: 74.44%
Inhibition 2 [2]: 57.78%
Inhibition 3 [2]: 54.87%
Inhibition 4 [2]: 71.94%
Mean % [2]: 64.76%
Inhibition 1 [3]: -6.83%
Inhibition 2 [3]: -18.02%
Inhibition 3 [3]: -46.91%
Inhibition 4 [3]: -15.34%
Mean % [3]: -21.78%
Inhibition 1 [4]: 35.42%
Inhibition 2 [4]: 0.09%
Inhibition 3 [4]: 1.29%
Inhibition 4 [4]: 21.46%
Mean % [4]: 14.57%
Inhibition 1 [5]: 100.99%
Inhibition 2 [5]: 95.9%
Inhibition 3 [5]: 86.08%
Inhibition 4 [5]: 60.28%
Mean % [5]: 85.81%
Affinity for receptors in primary assays ([6]; 10 μM, 46-47 primary binding assays): possessed affinity for the most receptors in primary assays
Inhibition 1 ([6]; Receptor Alpha1A, 10 μM): 22.91%
Inhibition 2 ([6]; Receptor Alpha1A, 10 μM): 19.17%
Inhibition 3 ([6]; Receptor Alpha1A, 10 μM): 28.52%
Inhibition 4 ([6]; Receptor Alpha1A, 10 μM): 1.22%
Mean % [6, 8]: 17.96%
Inhibition 1 ([6]; Receptor Alpha2A, 10 μM): 21.38%
Inhibition 2 ([6]; Receptor Alpha2A, 10 μM): 23.31%
Inhibition 3 ([6]; Receptor Alpha2A, 10 μM): 19.6%
Inhibition 4 ([6]; Receptor Alpha2A, 10 μM): 16.75%
Mean % [6, 9]: 20.26%
Inhibition 1 ([6]; Receptor Alpha2C, 10 μM): 22.11%
Inhibition 2 ([6]; Receptor Alpha2C, 10 μM): 17.82%
Inhibition 3 ([6]; Receptor Alpha2C, 10 μM): 14.79%
Inhibition 4 ([6]; Receptor Alpha2C, 10 μM): 26.53%
Mean % [6, 10]: 20.31%
Inhibition 1 [6, 11]: 6.42%
Inhibition 2 [6, 11]: 10.02%
Inhibition 3 [6, 11]: 1.11%
Inhibition 4 [6, 11]: 13.06%
Mean % [6, 12]: 7.65%
Inhibition 1 ([6]; Receptor DOR, 10 μM): -18.41%
Inhibition 2 ([6]; Receptor DOR, 10 μM): -4.86%
Inhibition 3 ([6]; Receptor DOR, 10 μM): 0.02%
Inhibition 4 ([6]; Receptor DOR, 10 μM): 6.53%
Mean % [6, 13]: -4.18%
Inhibition 1 ([6]; Receptor H3, 10 μM): 29.95%
Inhibition 2 ([6]; Receptor H3, 10 μM): 45.1%
Inhibition 3 ([6]; Receptor H3, 10 μM): 59.09%
Inhibition 4 ([6]; Receptor H3, 10 μM): 65.79%
Mean % ([6]; Receptor H3, 10 μM, mean of Inhibition 1-4): 49.98%
Inhibition 1 ([6]; Receptor H4, 10 μM): 11.34%
Inhibition 2 ([6]; Receptor H4, 10 μM): 13.02%
Inhibition 3 ([6]; Receptor H4, 10 μM): 28.62%
Inhibition 4 ([6]; Receptor H4, 10 μM): 77.11%
Mean % ([6]; Receptor H4, 10 μM, mean of Inhibition 1-4): 32.52%
Inhibition 1 ([6]; Receptor Sigma 1, 10 μM): 15.02%
Inhibition 2 ([6]; Receptor Sigma 1, 10 μM): 35.34%
Inhibition 3 ([6]; Receptor Sigma 1, 10 μM): 14.82%
Inhibition 4 ([6]; Receptor Sigma 1, 10 μM): 27.31%
Mean % [6, 14]: 23.12%
Inhibition 1 ([6]; Receptor Sigma 2, 10 μM): 57.01%
Inhibition 2 ([6]; Receptor Sigma 2, 10 μM): 56.94%
Inhibition 3 ([6]; Receptor Sigma 2, 10 μM): 67.96%
Inhibition 4 ([6]; Receptor Sigma 2, 10 μM): 81.11%
Mean % [6, 15]: 65.76%
Inhibition 1 [7]: 25.92%
Inhibition 2 [7]: 13.95%
Inhibition 3 [7]: 6.2%
Inhibition 4 [7]: -1.55%
Mean % [7]: 11.13%
